According to patent publication US11945806B2, “Stabilization of amyloidogenic immunoglobulin light chains” (The Scripps Research Institute, priority 2019, dated 2024):

The compounds below were run against WIL-FL (Homo sapiens, UniProt P01721) (assay: Unlabeled LC Protease Sensitivity Assay (proteinase K)). Settings: small molecule 10 μM, WIL-FL 5 μM, proteinase K 50 nM, 2 hours at 37° C.
Assay type: biochemical
Method in brief: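 WIL-FL light chain (5 μM) in PBS pH 7.4 + 0.02% Pluronic F-127 digested with proteinase K (50 nM) for 2 h at 37 °C with 10 μM compound (1% DMSO). Intact WIL-FL quantified by size-exclusion UPLC (A280). Fold protection = (A_compound−A_vehicle)/(A_no_protease−A_vehicle) from peak areas.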

Compound | Protection (fold protection of LC from protease)
CCN(CC)c1ccc2c(C)c(CCOC(=O)NCc3cccc(-c4ncccn4)c3)c(=O)oc2c1 [Compound 155, 2-(7-(diethylamino)-4-methyl-2-oxo-2H-chromen-3-yl)ethyl (3-(pyrimidin-2-yl)benzyl)carbamate] | C (C ≥ 0.6)
CCN(CC)c1ccc2c(C)c(CCOC(=O)NCc3cccc(-c4cncnc4)c3)c(=O)oc2c1 [Compound 156, 2-(7-(diethylamino)-4-methyl-2-oxo-2H-chromen-3-yl)ethyl (3-(pyrimidin-5-yl)benzyl)carbamate] | B (3 ≤ B < 0.6)
CCN(CC)c1ccc2c(C)c(CCOC(=O)NCc3cccc(-c4cnccn4)c3)c(=O)oc2c1 [Compound 157, 2-(7-(diethylamino)-4-methyl-2-oxo-2H-chromen-3-yl)ethyl (3-(pyrazin-2-yl)benzyl)carbamate] | C (C ≥ 0.6)
CCN(CC)c1ccc2c(C)c(CCN3CC4(CCN(c5ccccc5)CC4)NC3=O)c(=O)oc2c1 [Compound 158, 3-(2-(7-(diethylamino)-4-methyl-2-oxo-2H-chromen-3-yl)ethyl)-8-phenyl-1,3,8-triazaspiro[4.5]decan-2-one] | B (3 ≤ B < 0.6)
CCN(CC)c1ccc2c(C)c(CCOC(=O)NCc3cccc(-c4cc[nH]n4)c3)c(=O)oc2c1 [Compound 159, 2-(7-(diethylamino)-4-methyl-2-oxo-2H-chromen-3-yl)ethyl (3-(1H-pyrazol-5-yl)benzyl)carbamate] | C (C ≥ 0.6)
CCN(CC)c1ccc2c(C)c(CCOC(=O)NCc3cccc(-c4nc[nH]c4C)c3)c(=O)oc2c1 [Compound 160, 2-(7-(diethylamino)-4-methyl-2-oxo-2H-chromen-3-yl)ethyl (3-(5-methyl-1H-imidazol-4-yl)benzyl)carbamate] | C (C ≥ 0.6)
CCN(CC)c1ccc2c(C)c(CCOC(=O)NCc3cccc(-c4cccnc4)c3)c(=O)oc2c1 [Compound 161, 2-(7-(diethylamino)-4-methyl-2-oxo-2H-chromen-3-yl)ethyl (3-(pyridin-3-yl)benzyl)carbamate] | C (C ≥ 0.6)
CCN(CC)c1ccc2c(C)c(CCOC(=O)NCc3cccc(-c4ccncc4)c3)c(=O)oc2c1 [Compound 162, 2-(7-(diethylamino)-4-methyl-2-oxo-2H-chromen-3-yl)ethyl (3-(pyridin-4-yl)benzyl)carbamate] | C (C ≥ 0.6)
CCN(CC)c1ccc2c(C)c(CCOC(=O)NCc3cccc(-c4ccc[nH]c4=O)c3)c(=O)oc2c1 [Compound 163, 2-(7-(diethylamino)-4-methyl-2-oxo-2H-chromen-3-yl)ethyl (3-(2-oxo-1,2-dihydropyridin-3-yl)benzyl)carbamate] | C (C ≥ 0.6)
CCN(CC)c1ccc2c(C)c(CCOC(=O)NCc3cccc(-c4cn[nH]c4)c3)c(=O)oc2c1 [Compound 164, 2-(7-(diethylamino)-4-methyl-2-oxo-2H-chromen-3-yl)ethyl (3-(1H-pyrazol-4-yl)benzyl)carbamate] | C (C ≥ 0.6)
CCN(CC)c1ccc2c(C)c(CCOC(=O)NCc3cccc(-c4nc[nH]n4)c3)c(=O)oc2c1 [Compound 165, 2-(7-(diethylamino)-4-methyl-2-oxo-2H-chromen-3-yl)ethyl (3-(1H-1,2,4-triazol-5-yl)benzyl)carbamate] | C (C ≥ 0.6)
CCN(CC)c1ccc2c(C)c(CCOC(=O)NCc3cccc(-c4cccnn4)c3)c(=O)oc2c1 [Compound 166, 2-(7-(diethylamino)-4-methyl-2-oxo-2H-chromen-3-yl)ethyl (3-(pyridazin-3-yl)benzyl)carbamate] | C (C ≥ 0.6)
CCC(CC)c1ccc2c(C)cc(=O)oc2c1 [Compound 168, 4-methyl-7-(pentan-3-yl)-2H-chromen-2-one] | A (A < 0.3))
Cc1cc(=O)oc2cc(C(F)(F)F)ccc12 [Compound 169, 4-methyl-7-(trifluoromethyl)-2H-chromen-2-one] | A (A < 0.3))
CCN(CC)c1ccc2c(C)c(CCOC(=O)NCc3cccc(C(=N)NO)c3)c(=O)oc2c1 [Compound 170, 2-(7-(diethylamino)-4-methyl-2-oxo-2H-chromen-3-yl)ethyl (3-(N-hydroxycarbamimidoyl)benzyl)carbamate] | C (C ≥ 0.6)
Cc1cc(=O)oc2cc(OC(C)c3cccnc3)ccc12 (centres unmarked) [Compound 171, 4-methyl-7-(1-(pyridin-3-yl)ethoxy)-2H-chromen-2-one] | A (A < 0.3))

Compound | Protection (fold protection of LC from protease)
Cc1cc(=O)oc2cc(OC(C)c3ccncc3)ccc12 (centres unmarked) [Compound 172, 4-methyl-7-(1-(pyridin-4-yl)ethoxy)-2H-chromen-2-one] | A (A < 0.3))
Cc1cc(=O)oc2cc(OC(C)c3cnccn3)ccc12 (centres unmarked) [Compound 173, 4-methyl-7-(1-(pyrazin-2-yl)ethoxy)-2H-chromen-2-one] | A (A < 0.3))
Cc1cc(=O)oc2cc(OC(C)c3ccccn3)ccc12 (centres unmarked) [Compound 174, 4-methyl-7-(1-(pyridin-2-yl)ethoxy)-2H-chromen-2-one] | A (A < 0.3))
CCN(CC)c1ccc2c(C)c(CCN3C(=O)NC4(CCN(C(=O)c5c[nH]cn5)CC4)C3=O)c(=O)oc2c1 [Compound 176, 3-(2-(7-(diethylamino)-4-methyl-2-oxo-2H-chromen-3-yl)ethyl)-8-(1H-imidazole-4-carbonyl)-1,3,8-triazaspiro[4.5]decane-2,4-dione] | B (3 ≤ B < 0.6)
CCN(CC)c1ccc2c(C)c(CCN3C(=O)NC4(CCN(C(=O)c5ncc[nH]5)CC4)C3=O)c(=O)oc2c1 [Compound 177, 3-(2-(7-(diethylamino)-4-methyl-2-oxo-2H-chromen-3-yl)ethyl)-8-(1H-imidazole-2-carbonyl)-1,3,8-triazaspiro[4.5]decane-2,4-dione] | C (C ≥ 0.6)
CCN(CC)c1ccc2c(C)c(CCN3C(=O)NC4(CCN(C(=O)c5ccc[nH]c5=O)CC4)C3=O)c(=O)oc2c1 [Compound 178, 3-(2-(7-(diethylamino)-4-methyl-2-oxo-2H-chromen-3-yl)ethyl)-8-(2-oxo-1,2-dihydropyridine-3-carbonyl)-1,3,8-triazaspiro[4.5]decane-2,4-dione] | A (A < 0.3))
CCN(CC)c1ccc2c(C)c(CCN3C(=O)NC4(CCNC4)C3=O)c(=O)oc2c1 (centres unmarked) [Compound 179, 3-(2-(7-(diethylamino)-4-methyl-2-oxo-2H-chromen-3-yl)ethyl)-1,3,7-triazaspiro[4.4]nonane-2,4-dione] | B (3 ≤ B < 0.6)
CCN(CC)c1ccc2c(C)c(CCN3C(=O)NC4(CCN(C(=O)c5cnc[nH]5)C4)C3=O)c(=O)oc2c1 (centres unmarked) [Compound 180, 3-(2-(7-(diethylamino)-4-methyl-2-oxo-2H-chromen-3-yl)ethyl)-7-(1H-imidazole-4-carbonyl)-1,3,7-triazaspiro[4.4]nonane-2,4-dione] | C (C ≥ 0.6)
CCN(CC)c1ccc2c(C)c(CCN3C(=O)NC4(CCN(C(=O)c5ncc[nH]5)C4)C3=O)c(=O)oc2c1 (centres unmarked) [Compound 181, 3-(2-(7-(diethylamino)-4-methyl-2-oxo-2H-chromen-3-yl)ethyl)-7-(1H-imidazole-2-carbonyl)-1,3,7-triazaspiro[4.4]nonane-2,4-dione] | C (C ≥ 0.6)
CCN(CC)c1ccc2c(C)c(CCN3C(=O)NC4(CCN(C(=O)c5ccc[nH]c5=O)C4)C3=O)c(=O)oc2c1 (centres unmarked) [Compound 182, 3-(2-(7-(diethylamino)-4-methyl-2-oxo-2H-chromen-3-yl)ethyl)-7-(2-oxo-1,2-dihydropyridine-3-carbonyl)-1,3,7-triazaspiro[4.4]nonane-2,4-dione] | B (3 ≤ B < 0.6)
Cc1c(CN2CCOCC2)c(=O)oc2cc(OCC(C)c3ccccc3)ccc12 (centres unmarked) [Compound 183, 4-methyl-3-(morpholinomethyl)-7-(2-phenylpropoxy)-2H-chromen-2-one] | B (3 ≤ B < 0.6)
Cc1c(CN2CCOCC2)c(=O)oc2cc(OC(C)Cc3ccccc3)ccc12 (centres unmarked) [Compound 184, 4-methyl-3-(morpholinomethyl)-7-((1-phenylpropan-2-yl)oxy)-2H-chromen-2-one] | A (A < 0.3))
CCN(CC)c1ccc2c(C)c(CCN3C(=O)NC4(CCN(c5ncccn5)CC4)C3=O)c(=O)oc2c1 [Compound 185, 3-(2-(7-(diethylamino)-4-methyl-2-oxo-2H-chromen-3-yl)ethyl)-8-(pyrimidin-2-yl)-1,3,8-triazaspiro[4.5]decane-2,4-dione] | C (C ≥ 0.6)
CCN(CC)c1ccc2c(C)c(CCN3C(=O)NC4(CCN(c5ncc(C(F)(F)F)cn5)CC4)C3=O)c(=O)oc2c1 [Compound 186, 3-(2-(7-(diethylamino)-4-methyl-2-oxo-2H-chromen-3-yl)ethyl)-8-(5-(trifluoromethyl)pyrimidin-2-yl)-1,3,8-triazaspiro[4.5]decane-2,4-dione] | A (A < 0.3))
CCN(CC)c1ccc2c(C)c(CCN3C(=O)NC4(CCN(c5ccc(C(F)(F)F)cn5)CC4)C3=O)c(=O)oc2c1 [Compound 187, 3-(2-(7-(diethylamino)-4-methyl-2-oxo-2H-chromen-3-yl)ethyl)-8-(5-(trifluoromethyl)pyridin-2-yl)-1,3,8-triazaspiro[4.5]decane-2,4-dione] | A (A < 0.3))
CCN(CC)c1ccc2c(C)c(CCN3C(=O)NC4(CCN(c5ncnc6[nH]cnc56)CC4)C3=O)c(=O)oc2c1 [Compound 188, 3-(2-(7-(diethylamino)-4-methyl-2-oxo-2H-chromen-3-yl)ethyl)-8-(9H-purin-6-yl)-1,3,8-triazaspiro[4.5]decane-2,4-dione] | C (C ≥ 0.6)
